No end group written: not given here.
Tests used:
[1] = tested on: S. aureus USA300 LAC; type: cell-based, Staphylococcus aureus; details: USA300
Description: To gain additional insight, we also compared the effects of physiological saline and human serum on the antibacterial activities of WW291-WW298 using both E. coli and S. aureus (Table 3). In our assays, salts and serum were present during the entire course of the experiment. […] Thus, WW295 and WW298 stand out in terms of activity robustness (bold in Table 3).
The antibacterial activity of peptides was evaluated using a standard broth microdilution protocol with minor modifications as previously described. In brief, logarithmic phase bacterial cultures (i.e., optical density at 600 nm ≈ 0.5) were diluted to OD600~0.001 and partitioned into a 96-well polystyrene microplate at 90 μL per well. After treatment with 10 μL of peptide solutions two-fold diluted to various concentrations, microplates were incubated at 37 °C overnight and read on a ChroMate 4300 Microplate Reader at 630 nm (GMI, Ramsey, MN). […] Minimal bactericidal concentration (MBC) was determined by plating the clear wells at MIC or above. The peptide concentration that caused no bacterial growth on the petri dish is MBC.

[2] = tested on: monkey kidney Vero E6 cells; type: cell-based
Description: Peptides were assayed for potential in vitro toxicity against human keratinocytes (HaCaT) and THP-1 cells as previously described. THP-1 monocytes were differentiated into macrophages by adding 30 ng/mL of phorbol 12-myristate 13-acetate (PMA; Sigma-Aldrich) to RPMI 1640 supplemented with 10% fetal calf serum culture (FCS) medium for 16 h. Briefly, cells were seeded at a density of 3 × 10^4 per well in a tissue culture 96-well plate in DMEM/RPMI supplemented with 10% fetal bovine serum (FBS), and incubated at 37 °C in a 5% CO2 atmosphere for 24 h. African green monkey kidney Vero E6 cells were cultivated in EMEM in the same manner. Before antimicrobial treatment, wells were replaced with serum free media and treated with peptides at different concentrations for one hour. After incubation, the cells were washed and incubated with 100 μL of DMEM media containing 20 μL of 3-(4,5-dimethylthiazol-2-yl)-5-(3-carboxymethoxyphenyl)-2-(4-sulfophenyl)-2H-tetrazolium (MTS) reagent for two hours at 37 °C. […] Absorbance readings at 492 nm were taken using a ChroMate microplate reader (GMI, Ramsey, MN, USA).

[3] = tested on: E. coli ML35p; test: Simultaneous outer and inner membrane permeation (nitrocefin / ONPG); type: cell-based, Escherichia coli; details: 3.1 µM
From the text: To confirm the mechanism of action, we also performed membrane permeation using a reporter strain of E. coli ML35p. This strain enabled simultaneous monitoring of membrane permeation of both the inner and outer membranes of Gram-negative bacterium E. coli. Both WW295 and WW298 were included in the experiment. […] This is indicated by the sharp development of absorbance at 490 nm for nitrocefin (panel A) and at 420 nm for ONPG (panel B).
The E. coli ML-35p strain was utilized to probe the permeation of both the outer membrane (OM) and inner membrane (IM). This strain was engineered to have two membrane reporters. Nitrocefin is used for detection of OM permeabilization. Nitrocefin is excluded from the periplasm. […] The chromogenic cleavage product was spectrophotometrically monitored at 490 nm. […] However, permeabilization of the IM helps ONPG to enter cytoplasm and get cleaved by cytoplasmic β-galactosidase into o-nitrophenol, which can be detected spectrophotometrically at 420 nm. […] Absorbances at both 490 and at 420 nm were monitored using FLUOstar Omega (BMG, Labtech, NC, USA) simultaneously. After shaking at 100 rpm, readings were taken every 2 min for a total of 40 min at 37 °C. Data were analyzed using the MARS data analysis software provided by the manufacturer and representative plots were made using the GraphPad Prism 7 software.

[4] = tested on: K. pneumonia ATCC 13883; details: cited from earlier work
From the text: Table 2 Antibacterial activities of the WW peptides against various bacteria. | column: Minimal Inhibitory Concentration (MIC, μM) / KP ^a

[5] = tested on: S. aureus USA300 LAC; test: Disruption of 24 h established biofilms (XTT); type: cell-based, Staphylococcus aureus; details: 12.5 µM, highest concentration tested, 24 h treatment
Description: We also compared the effects of the peptides on established biofilms (24 h). […] When cells are alive (in the absence of peptide), the cell-permeant calcein-AM dye could enter the cells and gave green color as a consequence of the removal of acetoxymethyl (AM) esters by intracellular esterase (Figure 7A). When the cells were dead due to membrane damage by the peptide, the red dye ethidium homodimer (non-membrane permeable) could enter the cell and become red by binding to nucleic acids (Figure 7B).
The antibiofilm activity of the peptide against 24 h established biofilms was evaluated as previously described. In short, S. aureus USA300 LAC (10^5 CFU/mL) was made from exponential phase bacteria in TSB media and 180 μL were distributed to each well of the microtiter plate (Corning Costar Cat No. 3595, Amsterdam, The Netherlands). The plates were incubated at 37 °C for 24 h to form a biofilm. Culture treated with water served as a positive control while media without bacterial inoculation served as the negative control. Media were then pipetted out and the attached biofilms were washed with 1× PBS to remove the planktonic bacteria. Each well of the plate was then filled with 20 μL of 10× peptide solution and 180 μL of fresh TSB media and the plates were further incubated at 37 °C for 24 h. Media were then pipetted out and the wells were washed with 1× PBS to remove planktonic cells. The live cells in biofilms were estimated by XTT assay as mentioned above.

RKIWWWWL [WW295]
MIC, +150 mM NaCl [1]: 3.1 µM | MIC, +10% Human Serum [1]: 12.5 µM | MIC, TSB [1]: 3.1 µM | Vero Cells, concentration that caused 50% cell death (LC50) [2]: >100 µM | outer and inner membrane permeation (nitrocefin 490 nm, ONPG 420 nm) [3]: entered both outer and inner membranes | Minimal Inhibitory Concentration (MIC), KP [4]: 3.1 to 6.2 µM | disruption of established biofilms (24 h) [5]: did not disrupt MRSA biofilms significantly

Source: publication PMC7600788, “Sequence Permutation Generates Peptides with Different Antimicrobial and Antibiofilm Activities” (Pharmaceuticals, 2020)
